Reference: patent US10321683B2, “Insecticidal, miticidal, nematicidal, molluscicidal, microbicidal, or bactericidal composition and method for controlling pest” (NISSAN CHEMICAL INDUSTRIES, LTD., priority 2014, dated 2019)

Assays:
[1] = system: third instar larvae of common cutworms; test: Efficacy test for common cutworm (cabbage leaf dip); type: in vivo, Common cutworm (Spodoptera litura); details: six days after the treatment
Procedure: Each of Compound (1) or Compound (2) and the compounds listed in Table 1 was formulated into a 10% emulsifiable concentrate (some compound was formulated into a 25% wettable powder). The formulations were diluted with water containing a spreading agent to prepare chemical solutions of given concentrations. Cabbage leaves were dipped in the chemical solutions for 10 seconds. The dipped cabbage leaves were transferred on filter papers placed in 7 cm petri dishes with one leaf per one petri dish, and the leaves were air dried. After the air drying was completed, the seven third instar larvae of common cutworms were placed in each petri dish and then the petri dishes were placed in an incubator at 25° C. Six days after the treatment, the numbers of dead larvae were checked, and the percentages of dead insects were calculated according to the calculating equation below. Note that the tests were conducted in duplicate. The percentage of dead insects (%)=the number of dead insects/the number of tested insects×100
(§1) To each concentration of chemical solutions, the synergistic effect was calculated from the percentage of dead insects by using Colby's method (Colby S. R. 1976, Weeds 15, 20-22). The calculation method was as follows. E=X+Y−XY/100
(§2) X: an observed value at an x concentration of Chemical A (the percentage of dead insects)
(§3) Y: an observed value at a y concentration of Chemical B (the percentage of dead insects)
(§4) E: the percentage of dead insects expected at the time of a mixed treatment with Chemical A and Chemical B.
(§5) If the observed value was larger than the expected value, there was a synergistic effect; if the expected value was larger than the observed value, there was an antagonist effect; and if the observed value and the expected value were same, there was an additive effect.

[2] = system: melon thrips female adult insects; test: Efficacy test for melon thrips female adult insect (leaf disk spray); type: in vivo, Melon thrips (Thrips palmi); details: 2 days after spraying
Procedure: (§6) Each of Compound (1) or Compound (2) and the compounds listed in Table 1 was formulated into a 10% emulsifiable concentrate. The formulations were diluted with water to prepare chemical solutions of given concentrations. A styrol cup (having the diameter of the lid of 7.5 cm, and the height of 4 cm) was filled with tap water, and a lid having a hole in its center was placed on the styrol cup, and a filter paper was placed on the lid to absorb tap water. An absorbent cotton (5 cm×5 cm) wetted with tap water was placed on the filter paper, and a leaf disk (having the diameter of 1.7 cm) made of a cucumber leaf was placed on the absorbent cotton. The ten melon thrips female adult insects were placed on the leaf disk. Each of the test containers was treated with a spray solution as was uniformly sprayed by using a spraying apparatus (2.5 ml/cup). Examinations were conducted 2 days after spraying, and the percentages of dead insects were calculated according to the calculating equation below. Note that the tests were conducted in duplicate. The percentage of dead insects (%)=the number of dead insects/the number of tested insects×100
To each concentration of chemical solutions, the synergistic effect was calculated from the percentage of dead insects by using Colby's method (Colby S. R. 1976, Weeds 15, 20-22). The calculation method was as follows. E=X+Y−XY/100 […]

[3] = system: Western flower thrips larva; test: Efficacy test for Western flower thrips larva (leaf disk spray); type: in vivo, Western flower thrips (Frankliniella occidentalis); details: 1 day after spraying
Procedure: A styrol cup (having the diameter of the lid of 7.5 cm, and the height of 4 cm) was filled with tap water, and a lid having a hole in its center was placed on the styrol cup, and a leaf disk (having the diameter of 1.7 cm) made of a common bean leaf was placed on the lid. Suitable amounts of eggs of Western flower thrips were placed on the leaf disk, and were controlled in a thermostatic chamber for 24 hours to be hatched. Each of Compound (1) or Compound (2) and the compounds listed in Table 1 was formulated into a 10% emulsifiable concentrate. The formulations were diluted with water to prepare chemical solutions of given concentrations. Each of the test containers was treated with a spray solution as was uniformly sprayed by using a spraying apparatus (2.5 ml/cup). Examinations were conducted 1 day after spraying, and the percentages of dead insects were calculated according to the calculating equation below. Note that the tests were conducted in duplicate. The percentage of dead insects (%)=the number of dead insects/the number of tested insects×100
as §1, §2, §3, §4, §5

[4] = system: fourth instar larvae of cotton bollworms; test: Efficacy test for cotton bollworm (cabbage leaf dip); type: in vivo, Cotton bollworm (Helicoverpa armigera); details: six days after the treatment
Procedure: Each of Compound (1) or Compound (2) and the compounds listed in Table 1 was formulated into a 10% emulsifiable concentrate (some compound was formulated into a 25% wettable powder). The formulations were diluted with water containing a spreading agent to prepare chemical solutions of given concentrations. Cabbage leaves were dipped in the chemical solutions for 10 seconds. The dipped cabbage leaves were transferred on filter papers placed in 7 cm petri dishes with one leaf per one petri dish, and the leaves were air dried. After the air drying was completed, the seven fourth instar larvae of cotton bollworms were placed in each petri dish, and then, the petri dishes were placed in an incubator at 25° C. Six days after the treatment, the numbers of dead larvae were checked, and the percentages of dead insects were calculated according to the calculating equation below. Note that the tests were conducted in duplicate. The percentage of dead insects (%)=the number of dead insects/the number of tested insects×100
as §1, §2, §3, §4, §5

[5] = system: sweetpotato whitefly adult insects; test: Efficacy test for sweetpotato whitefly biotype B (leaf disk spray); type: in vivo, Sweetpotato whitefly (Bemisia tabaci) biotype B; details: 5 days after spraying
Procedure: as §6, with “of 3” for “of 1.7”, “a common bean” for “a cucumber”, “cotton.” for “cotton. The ten melon thrips female adult insects were placed on the leaf disk.”, “ml/cup). The 20 sweetpotato whitefly adult insects were placed on the leaf disk, and a mesh lid was placed over the container to prevent escape of the insects.” for “ml/cup).”, “conducted 5” for “conducted 2”, “insects×100 To each concentration of chemical solutions, the synergistic effect was calculated from the percentage of dead insects by using Colby's method (Colby S. R. […], Weeds 15, 20-22). […]” for “insects×100”

varroa mites = test: Efficacy test for varroa mite (coated screw bottle); type: in vivo; details: 100 μg/tube; 24 hours after placing
Procedure: The Compound (1) or Compound (2) was adjusted to a given concentration with acetone. After the adjustment, 300 μl of each of the prepared solutions was poured into a 20 ml screw bottle. The solvent was volatilized as the inner surface of the bottle was uniformly coated with the solution, and then the bottle was stored in a cool and dark place overnight. To obtain varroa mites, a blood comb was taken out from a beehive of honey bees on the day before placing of mites, and pupae having varroa mites were taken and placed in a petri dish. The petri dish was stored in an incubator at 34° C. overnight under the total darkness condition, and then only surviving varroa mites were collected. The collected varroa mites were placed in each of the screw bottles that were treated with the above-described chemicals, and the screw bottles were closed with caps. After three hours, the pupae of honey bees were placed in the screw bottles; the screw bottles were closed with caps again, and were stored in an incubator at 34° C. under the total darkness condition. The number of dead insects 24 hours after placing was checked, and the percentages of dead insects were calculated according to the calculating equation below. Note that the tests were conducted in quadruplicate of three in one plot. The percentage of dead insects (%)=the number of dead insects/the number of tested insects×100

With `N#Cc1ccc(CC(=NNC(=O)Nc2ccc(OC(F)(F)F)cc2)c2cccc(C(F)(F)F)c2)cc1` (mixture of isomers) [Compound dc, metaflumizone, reference compound] the “Percentage of Dead Insect (%) Observed Value” ([1]; Table 6, 1.7 ppm) was 53.8%.
With `CC(NC(=O)c1cc(Cl)cc(Br)c1NC(=O)c1cc(Br)nn1-c1ncccc1Cl)C1CC1` (stereo not drawn) [Compound am, cyclaniliprole, reference compound] the “Percentage of Dead Insect (%) Observed Value” ([1]; Table 7, 0.17 ppm) was 7.7%.
For `CCc1nc2cc(C)c(Oc3ccc(OC(F)(F)F)cc3)cc2c(OC(=O)OC)c1C` [Compound bx, flometoquin, reference compound], the “Percentage of Dead Insect (%) Observed Value” ([2]; 2.5 ppm) was 52.6%.
With `CNC(=O)c1cc(Cl)cc(C)c1NC(=O)c1cc(Br)nn1-c1ncccc1Cl` [Compound aa, chlorantraniliprole, reference compound] the “Percentage of Dead Insect (%) Observed Value” ([1]; 0.083 ppm) was 21.4%.
For `CC1(C)[C@H](C(=O)O[C@H](C#N)c2cccc(Oc3ccccc3)c2)[C@@H]1/C=C(\Cl)C(F)(F)F` [Compound ar, gamma-cyhalothrin, reference compound], the “Percentage of Dead Insect (%) Observed Value” ([1]; 0.5 ppm) was 35.7%.
“spinosad [Compound em, reference compound]” was tested, and the “Percentage of Dead Insect (%) Observed Value” ([1]; Table 4, 32 ppm) was 60.0%.
“tetraniliprole [Compound ey, reference compound]” was tested, and the “Percentage of Dead Insect (%) Observed Value” ([1]; Table 8, 1.7 ppm) was 64.3%.
With `O=C(NC(=O)c1c(F)cccc1F)Nc1ccc(Oc2ccc(C(F)(F)F)cc2Cl)cc1F` [Compound ce, flufenoxuron] the “Percentage of Dead Insect (%) Observed Value” ([3]; 20 ppm) was 27.2%.
`CNC(=O)c1cc(C#N)cc(C)c1NC(=O)c1cc(Br)nn1-c1ncccc1Cl` [Compound al, cyantraniliprole, reference compound] was tested, and the “Percentage of Dead Insect (%) Observed Value” ([4]; 0.25 ppm) was 42.9%.
`Cc1cc(C(F)(C(F)(F)F)C(F)(F)F)ccc1NC(=O)c1cccc(I)c1C(=O)NC(C)(C)CS(C)(=O)=O` [Compound ca, flubendiamide, reference compound] was tested, and the “Percentage of Dead Insect (%) Observed Value” ([4]; 0.025 ppm) was 35.7%.
In the case of `CO/N=C\NC(=O)c1ccc(C2=NOC(c3cc(Cl)cc(Cl)c3)(C(F)(F)F)C2)cc1C` (stereo not drawn) [Compound (2), (Z)-4-[5-(3,5-dichlorophenyl)-5-trifluoromethyl-4,5-dihydroisoxazole-3-yl]-N-(methoxyiminomethyl)-2-methylbenzamide], the “Percentage of Dead Insect (%) Observed Value” ([2]; 5 ppm) is reported as 42.1%, the “Percentage of Dead Insect (%) Observed Value” ([5]; 5 ppm) is reported as 36.6% and the “Percentage of Dead Insect (%) Observed Value” ([4]; 0.125 ppm) is reported as 35.7%. The “Percentage of Dead Insect (%) Observed Value” ([1]; 0.017 ppm) was 35.7%, the “Percentage of Dead Insect (%) Observed Value” ([1]; Table 4, 0.025 ppm) was 35.7% and the “Percentage of Dead Insect (%) Observed Value” ([1]; Table 5, 0.025 ppm) was 35.7%. For the same compound, the “Percentage of Dead Insect (%) Observed Value” ([1]; Table 6, 0.025 ppm) was 35.7%, the “Percentage of Dead Insect (%) Observed Value” ([1]; Table 7, 0.005 ppm) was 14.3% and the “Percentage of Dead Insect (%) Observed Value” ([1]; Table 8, 0.005 ppm) was 14.3%. For the same compound, the “Percentage of Dead Insect (%)” value (varroa mites) was 100% and the “Percentage of Dead Insect (%) Observed Value” ([3]; 1 ppm) was 29.5%.
In the case of “spinetoram [Compound el, reference compound]”, the “Percentage of Dead Insect (%) Observed Value” ([1]; Table 5, 4.4 ppm) is reported as 78.6%.
In the case of `Cc1c(COC(=O)[C@@H]2[C@H](/C=C(\Cl)C(F)(F)F)C2(C)C)cccc1-c1ccccc1` (racemic) [Compound q, bifenthrin], the “Percentage of Dead Insect (%) Observed Value” ([3]; 20 ppm) is reported as 8.5%.
`O=C1C=C(N(Cc2ccc(Cl)nc2)CC(F)F)CO1` [Compound ci, flupyradifurone, reference compound] was tested, and the “Percentage of Dead Insect (%) Observed Value” ([5]; 25 ppm) was 40.5%.
In the case of `Cc1cc(C2=NOC(c3cc(Cl)cc(Cl)c3)(C(F)(F)F)C2)ccc1C(=O)NCC(=O)NCC(F)(F)F` (stereo not drawn) [Compound (1), 4-[5-(3,5-dichlorophenyl)-4,5-dihydro-5-(trifluoromethyl)isoxazole-3-yl]-2-methyl-N-[2-oxo-2-[(2,2,2-trifluoroethyl)amino]ethyl]benzamide], the “Percentage of Dead Insect (%) Observed Value” ([4]; 0.125 ppm) is reported as 28.6%, the “Percentage of Dead Insect (%) Observed Value” ([1]; 0.017 ppm) is reported as 28.6% and the “Percentage of Dead Insect (%)” value (varroa mites) is reported as 100%.
